Measured values as given in patent US20240239788A1, “SMALL MOLECULE INHIBITORS OF KRAS G12D MUTANT” (Merck Sharp & Dohme LLC, priority 2021, published 2024).
Where a name gives a salt, the structure may show the parent alone. Read-outs that look alike come from different tables or passages of the source.

What was measured:
[1] = tested on: AsPC-1 cells containing homozygous KRAS-G12D activating mutation; assay: Cellular phospho-ERK assay with 10% FBS (Examples 107a-256); type: cell-based
Experimental: 5% CO2 for 2 hours. […] Assay plates were read on a EnVision Multimode Plate Reader (PerkinElmer) and the ratio of p-Erk vs total Erk in each well was used as the final readout.

[2] = target: KRAS protein containing G12D mutation (Homo sapiens (Human), UniProt P01116, G12D); assay: SOS-catalyzed nucleotide exchange assay (GNE), TR-FRET; type: biochemical; conditions: biotinylated KRAS G12D, SOS and GTP, 60-minute incubation
Experimental: Compounds are added to this complex and then after a 60-minute incubation time the mixture is treated with SOS and unlabeled GTP. Small molecule inhibitors stabilize the Bodipy-GDP complex whereas the untreated protein rapidly exchanges Bodipy-GDP for unlabeled GTP resulting in reduced TR-FRET signal.
This solution is referred to as biotinylated KRAS G12D stock solution.

[3] = read-out: IC50 (nM) pERK (cell with FBS 10%), AsPC-1 cells, 10% fetal bovine serum, 2 hours, ratio of p-Erk vs total Erk
[4] = Homo sapiens, ASPC1, 2 h, read-out: IC50 (nM) pERK (cell with FBS 10%), AsPC-1 cells, 10% fetal bovine serum, 2 hours, ratio of p-Erk vs total Erk

Molecule | IC50 [1, 3] | IC50 [2] | IC50 [1, 4]
2,2,2-trifluoroacetaldehyde-6-(6-chloro-8-fluoro-2-(((2R,7aS)-2-fluorotetrahydro-1H-pyrrolizin-7a(5H)-yl)methoxy)-4-((1S,5R)-1-methyl-3,8-diazabicyclo[3.2.1]octan-3-yl)quinazolin-7-yl)-4-methyl-5-(trifluoromethyl)pyridin-2-amine (1/1) [Ex. 238b] | 21100 nM | 2710 nM | –
CC(Oc1nc(N2C[C@H]3CC[C@@](C)(C2)N3)c2cc(F)c(-c3cc(O)cc4cccc(Cl)c34)c(F)c2n1)[C@]1(C)CCCN1 (mixture of isomers) [Ex. 164, 5-chloro-4-(6,8-difluoro-4-((1S,5R)-1-methyl-3,8-diaza-bicyclo-[3.2.1]octan-3-yl)-2-(1-((S)-2-methyl-pyrrolidin-2-yl)ethoxy)-quinazolin-7-yl)naph-thalen-2-ol, TFA] | – | 562 nM | 29300 nM
C[C@]12CC[C@H](CN(c3nc(OCC45CNCC4C5)nc4c(F)c(-c5cc(O)cc6cccc(Cl)c56)c(F)cc34)C1)N2 (mixture of isomers) [Ex. 165, 4-(2-((3-azabicyclo-[3.1.0]hexan-1-yl)-methoxy)-6,8-difluoro-4-((1S,5R)-1-methyl-3,8-diazabicyclo[3.2.1]-octan-3-yl)quinazolin-7-yl)-5-chloronaph-thalen-2-ol, TFA] | – | 149 nM | 15400 nM
Cc1cc(N)nc(-c2c(F)cc3c(N4CC5CCC(C4)N5)nc(OC[C@@]45CCCN4C[C@H](F)C5)nc3c2F)c1C(F)(F)F (mixture of isomers) [Ex. 193, 6-(4-((1R,5S)-3,8-diazabicyclo[3.2.1]-octan-3-yl)-6,8-difluoro-2-(((2R,7aS)-2-fluorotetrahydro-1H-pyrrolizin-7a(5H)-yl)methoxy)quinazo-lin-7-yl)-4-methyl-5-(trifluoromethyl)pyr-idin-2-amine] | – | 10.3 nM | 187 nM
C[C@]12CCC(CN(c3nc(OC[C@@]45CCCN4C[C@H](F)C5)nc4c(F)c(-c5cccc6cccc(Cl)c56)c(F)cc34)C1)N2 (mixture of isomers) [Ex. 212, 7-(8-chloronaphthalen-1-yl)-6,8-difluoro-2-(((2R, 7aS)-2-fluorotetrahydro-1H-pyrrolizin-7a(5H)-yl)-methoxy)-4-((1S,5R)-1-methyl-3,8-diazabicyclo-[3.2.1]octan-3-yl)quinazoline, 2TFA] | – | 180 nM | 9060 nM
C[C@]12CCC(CN(c3nc(OC[C@]4(CN5CCC(CO)C5)CC4(F)F)nc4c(F)c(-c5cc(O)cc6cccc(Cl)c56)c(F)cc34)C1)N2 (mixture of isomers) [Ex. 218, 5-chloro-4-(2-(((1R)-2,2-difluoro-1-((3-(hydroxymethyl)pyrrolidin-1-)-methyl)cyclopropyl)methoxy)-6,8-difluoro-4-((1S,5R)-1-methyl-3,8-diazabicyclo[3.2.1]octan-3-yl)quinazolin-7-yl)naphthalen-2-ol] | – | 6.54 nM | 1550 nM
C[C@]12CCC(CN(c3nc(OC[C@@]45CCCN4C[C@H](F)C5)nc4c(F)c(-c5cc(O)cc6cccc(C(F)F)c56)c(F)cc34)C1)N2 (racemic) [Ex. 181a, rac-4-(6,8-difluoro-2-(((2R,7aS)-2-fluoro-tetrahydro-1H-pyrrol-izin-7a(5H)-yl)meth-oxy)-4-((18,5R)-1-methyl-3,8-diaza-bicyclo[3.2.1]octan-3-yl)quinazolin-7-yl)-5-(difluoromethyl)naph-thalen-2-ol] | 122 nM | – | –
C[C@]12CCC(CN(c3nc(OC[C@@]45CCCN4C[C@H](F)C5)nc4c(F)c(-c5cc(O)cc6cccc(C(F)F)c56)c(F)cc34)C1)N2 (racemic) [Ex. 181b, rac-4-(6,8-difluoro-2-(((2R,7aS)-2-fluoro-tetrahydro-1H-pyrrol-izin-7a(5H)-yl)meth-oxy)-4-((1S,5R)-1-methyl-3,8-diaza-bicyclo[3.2.1]octan-3-yl)quinazolin-7-yl)-5-(difluoromethyl)naph-thalen-2-ol] | 2660 nM | – | –
C[C@]12CC[C@H](CN(c3nc(OCC4(CN5CCCC(O)(C(F)(F)F)C5)CC4)nc4c(F)c(-c5cc(O)cc6cccc(Cl)c56)c(F)cc34)C1)N2 (mixture of isomers) [Ex. 206, rac-1-((1-(((7-(8-chloro-3-hydroxynaphthalen-1-yl)-6,8-difluoro-4-((1S,5R)-1-methyl-3,8-diazabicyclo-[3.2.1]octan-3-yl)quinazolin-2-yl)oxy)methyl)cyclo-propyl)methyl)-3-(trifluoromethyl)piperidin-3-ol] | – | 1340 nM | 30000 nM
C[C@]12CC[C@H](CN(c3nc(OCC4(CN5CCCC(O)(C(F)(F)F)C5)CC4)nc4c(F)c(-c5cc(O)cc6cccc(Cl)c56)c(F)cc34)C1)N2 (mixture of isomers) [Ex. 207, rac-1-((1-(((7-(8-chloro-3-hydroxynaphthalen-1-yl)-6,8-difluoro-4-((1S,5R)-1-methyl-3,8-diazabicyclo-[3.2.1]octan-3-yl)quinazolin-2-yl)oxy)methyl)cyclo-propyl)methyl)-3-trifluoromethyl)piperidin-3-ol] | 30000 nM | 767 nM | –
Cc1cc2[nH]nc(C#N)c2c(-c2c(F)cc3c(N4C[C@H]5CC[C@@H](C4)N5)nc(OC[C@@]45CCCN4C[C@H](F)C5)nc3c2F)c1C(F)(F)F (single isomer, unassigned) [227b] | 32.6 nM | 1.02 nM | –
C#Cc1c(F)ccc2cccc(-c3c(F)cc4c(N5CC6CC[C@@](C)(C5)N6)nc(OCC56CCCN5C(COC(=O)N(C)C)CC6)nc4c3F)c12 (single isomer, unassigned) [242a] | 135 nM | 1.15 nM | –
C#Cc1c(F)ccc2cccc(-c3c(F)cc4c(N5CC6CC[C@@](C)(C5)N6)nc(OCC56CCCN5C(COC(=O)N(C)C)CC6)nc4c3F)c12 (single isomer, unassigned) [242b] | 1080 nM | 93.5 nM | –
Cc1cc(N)nc(-c2c(Cl)cc3c(N4CC5CC(O)C(C4)N5)nc(OC[C@@]45CCCN4C[C@H](F)C5)nc3c2F)c1C(F)(F)F (single isomer, unassigned) [249b] | – | 1.52 nM | 360 nM
Cc1nc2[nH]nc(C)c2c(-c2c(F)cc3c(N4C[C@H]5CC[C@@H](C4)N5)nc(OC[C@@]45CCCN4C[C@H](F)C5)nc3c2F)c1C(F)(F)F (single isomer, unassigned) [250b] | 63.1 nM | 1.54 nM | –
C#Cc1c(F)ccc2cc(N)nc(-c3c(F)cc4c(N5C[C@H]6CC[C@@H](C5)N6)nc(OC[C@@]56CCCN5C[C@H](F)C6)nc4c3F)c12 (single isomer, unassigned) [252a] | – | 0.85 nM | 64.3 nM
CN(C)CC1(COc2nc(N3C[C@H]4CC[C@@](C)(C3)N4)c3cc(F)c(-c4cc(O)cc5ccccc45)c(F)c3n2)CC1C(=O)O (single isomer, unassigned) [Ex. 107a] | 30000 nM | 648 nM | –
Cc1cc2[nH]ncc2c(-c2c(F)cc3c(N4C[C@H]5CC[C@@](C)(C4)N5)nc(OC[C@@]45CCCN4C[C@H](F)C5)nc3c2F)c1OC(F)(F)F (single isomer, unassigned) [Ex. 126a] | 1240 nM | 8.59 nM | –
Cc1cc2[nH]ncc2c(-c2c(F)cc3c(N4C[C@H]5CC[C@@](C)(C4)N5)nc(OC[C@@]45CCCN4C[C@H](F)C5)nc3c2F)c1OC(F)(F)F (single isomer, unassigned) [Ex. 126b] | 3460 nM | 67.9 nM | –
